The test system of data set [1] is Plasmodium falciparum FCR3 strain. Put plainly: Antimalarial activity in vitro against drug-sensitive P. falciparum FCR3 strain. The format is cell-based. The conditions noted are these: for IC50: Plasmodium falciparum; for Selectivity Index MRC-5/FCR3: ratio of IC50 MRC-5 to IC50 FCR3. From the text:
(§1) The antimalarial activities of psammaplysin F (3), ceratinadin E (1), and ceratinadin F (2) against a drug-resistant and a drug-sensitive strains of Plasmodium falciparum (K1 and FCR3 strains, respectively) were examined, see Table 2 [16].

The subject of data set [2] is Plasmodium falciparum K1 strain. In words: Antimalarial activity in vitro against drug-resistant P. falciparum K1 strain. The format is cell-based. Particulars: for IC50: Plasmodium falciparum; for Selectivity Index MRC-5/K1: ratio of IC50 MRC-5 to IC50 K1.
Excerpt: as §1

Data set [3] in a line: Cytotoxicity against MRC-5 cells. The format is cell-based, human.
Data set [4] concerns MRC-5 (normal human embryonic lung fibroblast). In words: Cytotoxicity against MRC-5 cells. The format is cell-based.
Where [5] appears, read: drug-sensitive P. falciparum strain FCR3, in vitro, read-out: Antimalarial Activity FCR3, IC50.
The mark [6] stands for this setting: drug-resistant P. falciparum strain K1, in vitro, read-out: Antimalarial Activity K1, IC50.
Where [7] appears, read: human, MRC-5 cells (normal human embryonic lung fibroblasts).

As usually defined, the IC50 is the concentration that gives 50% inhibition.

Converted amounts (≈) assume the structure as drawn. Like-named read-outs stand apart in the source and are kept apart here.

As to `CNCCc1cc(Br)c(OCCCNC(=O)N(C)CCc2cc(Br)c(OCCCNC(=O)C3=NO[C@]4(CC(Br)=C(OC)C(Br)=CO4)[C@@H]3O)c(Br)c2)c(Br)c1` [Ceratinadin E (1), ceratinadin E], the IC50 in data set [1] (setting [5]) was determined as 0.77 µg/mL (≈ 0.676 µM); in data set [2] (setting [6]), 1.03 µg/mL (≈ 0.904 µM); in data set [3] (setting [7]), 16 µg/mL (≈ 14 µM). For the same compound, the “Selectivity Index MRC-5/FCR3” value in data set [1] is 20.8. Besides, the “Selectivity Index MRC-5/K1” value in data set [2] turned out to be 15.5.

For `CCN(CC)CCCC(C)Nc1ccnc2cc(Cl)ccc12` (centres unmarked) [Chloroquine, reference compound], the IC50 was 0.035 µg/mL (≈ 0.109 µM) in data set [1] (FCR3, read-out: Antimalarial Activity FCR3, IC50); 0.34 µg/mL (≈ 1.06 µM) in data set [2] (K1, read-out: Antimalarial Activity K1, IC50); over 25.8 µg/mL in data set [3] (normal human embryonic lung fibroblast).

Take `CNCCc1cc(Br)c(OCCCNC(=O)N(C)CCc2cc(Br)c(OCCCNC(=O)N(C)CCc3cc(Br)c(OCCCNC(=O)C4=NO[C@]5(CC(Br)=C(OC)C(Br)=CO5)[C@@H]4O)c(Br)c3)c(Br)c2)c(Br)c1` [Ceratinadin F (2), ceratinadin F]: the “antimalarial activity (in words)” value in data set [2] (P. falciparum in vitro, strain not named, only K1 examined for this compound) is recorded as “did not show significant antimalarial activity”. The IC50 in data set [2] (setting [6]) is over 12.5 µg/mL; in data set [3] (setting [7]) it was over 50 µg/mL. In addition, the “Selectivity Index MRC-5/K1” value in data set [2] is over 4.

With `C[C@@H]1CC[C@H]2[C@@H](C)C(=O)O[C@@H]3O[C@@]4(C)CC[C@@H]1[C@]32OO4` [Artemisinin, reference compound], the IC50 is 0.0088 µg/mL (≈ 0.0312 µM) in data set [1] (setting [5]), 0.01 µg/mL (≈ 0.0354 µM) in data set [2] (setting [6]) and over 14.1 µg/mL in data set [3] (setting [7]). In addition, the “Selectivity Index MRC-5/FCR3” value in data set [1] was over 1604.5. The “Selectivity Index MRC-5/K1” value in data set [2] is given as over 1412.

In the case of psammaplysin F [Psammaplysin F (3)], the “Antimalarial Activity FCR3, IC50” value in data set [1] (drug-sensitive P. falciparum strain FCR3, in vitro) is 2.45 µg/mL. The “Antimalarial Activity K1, IC50” value in data set [2] (drug-resistant P. falciparum strain K1, in vitro) worked out at 3.77 µg/mL. For the same compound, the “Cytotoxicity MRC-5, IC50” value in data set [4] worked out at 12.65 µg/mL.
